Experimental data reported in patent publication US10772879B2, “Pharmaceutical formulations” (TORRENT PHARMACEUTICALS LIMITED, priority 2015, dated 2020).

Legend:
[1] = Oral bioavailability in rats (data on file); type: in vivo; conditions: administered orally to rats
[2] = Assessment of oral pharmacokinetics / bioavailability in jugular vein cannulated Wistar rats; type: in vivo; conditions: 10 mg/kg, Wistar rats (n=5), Mean
Description: Bioavailability of 1-(2-thien-2′-yl-2-oxo-ethyl)-3-(methanesulfonyl hydrazine carbonyl) pyridinium compound was checked using formulations as given in Table 2.
The assessment of oral pharmacokinetics was carried out. […] The blood samples were withdrawn at pre-determined time points; pre-dose (0.0 hr), 0.25, 0.5, 1, 2, 4, 6, 8, 12 and 24 hrs post dose. Plasma obtained at each time point was subjected to quantification of 1-(2-thien-2′-yl-2-oxo-ethyl)-3-(methanesulfonyl hydrazine carbonyl) pyridinium compound. LC-MS/MS method was used for the quantification of 1-(2-thien-2′-yl-2-oxo-ethyl)-3-(methanesulfonyl hydrazine carbonyl) pyridinium compound using an internal standard. The plasma samples were analyzed using solid phase extraction techniques in the calibration range of 0.500 ng/mL to 1000.000 ng/mL.
Data were presented with Mean±SD (standard deviation) and compared with 1-(2-thien-2′-yl-2-oxo-ethyl)-3-(methanesulfonyl hydrazine carbonyl) pyridinium compound PK data obtained after oral administration of solution of 1-(2-thien-2′-yl-2-oxo-ethyl)-3-(methanesulfonyl hydrazine carbonyl) pyridinium chloride in water under similar conditions.

[3] = phase I clinical studies, humans; cited from earlier work
[4] = clinical studies, administered orally; cited from earlier work
[5] = tested on: animal models of Type II diabetes; conditions: cited from earlier work

| Substance | bioavailability [1] | AUClast [2] [ng·h/mL] | Cmax [2] [ng/mL] | oral bioavailability [3] | safety and tolerability [4] | effect on cardiomyopathy and nephropathy [5] |
| --- | --- | --- | --- | --- | --- | --- |
| 1-(2-thien-2′-yl-2-oxo-ethyl)-3-(methanesulfonyl hydrazine carbonyl) pyridinium bromide | very low |  |  |  |  |  |
| 1-(2-thien-2′-yl-2-oxo-ethyl)-3-(methanesulfonyl hydrazine carbonyl) pyridinium chloride |  | 222.86 | 85.764 | very low | safe and well tolerated | improve cardiomyopathy and nephropathy |
